Source: patent publication US10690666B2, “Methods and compositions for modulating TH-GM cell function” (National University of Singapore, priority 2014, dated 2020)

Key:
synovial fibroblasts = assay: Cytokine mRNA expression by synovial fibroblasts; type: cell-based, mouse
Excerpt: FIGS. 34A-34I depicts GM-CSF mediates proinflammatory cytokine expression by myeloid cells and synovial fibroblasts in arthritic mice. Synovial tissues were dissected from wild-type AIA mice and dissociated into single cell suspensions. (FIG. 34A) Flow cytometry plots depicting the fractionation into different populations based on differential expression of surface markers. (FIG. 34B) The mRNA expression of several proinflammatory cytokines in sorted CD45^+ TCRβ^+ (TCRβ^+ in short), CD45^+ TCRβ^−CD11c^−CD11b^+ (CD11b^+) and CD45^+ TCRβ^−CD11c^+ (CD11c^+) populations was measured by qPCR. The qPCR data were normalized to GAPDH. (FIG. 34C) The mRNA expression of IL-6, IL-1β and TNF-α in sorted Ly6C^hiLy6G^− and Ly6C^loLy6G^hi populations (gated on CD11b^+ cells). The qPCR data were normalized to GAPDH. (FIGS. 34D and 34E) The mRNA expression of IL-6 and IL-1β by BMDMs (FIG. 34D) and BMDCs (FIG. 34E) upon stimulation with 20 ng/ml GM-CSF for 1 h. The qPCR data were normalized to GAPDH. (FIGS. 34F and 34G) BMDMs (FIG. 34F) and BMDCs (FIG. 34G) were stimulated with GM-CSF at indicated concentrations (n=3 per group) for 18 h. The secretion of IL-6 in the culture supernatant was quantified by ELISA. […] The secretion of IL-1β in the culture supernatant was quantified by ELISA. […] The mRNA expression of IL-1β was measured by qPCR. […]

BMDMs = assay: Cytokine expression by bone marrow-derived macrophages (BMDMs); type: cell-based, mouse
Excerpt: FIGS. 34A-34I depicts GM-CSF mediates proinflammatory cytokine expression by myeloid cells and synovial fibroblasts in arthritic mice. Synovial tissues were dissected from wild-type AIA mice and dissociated into single cell suspensions. (FIG. 34A) Flow cytometry plots depicting the fractionation into different populations based on differential expression of surface markers. (FIG. 34B) The mRNA expression of several proinflammatory cytokines in sorted CD45^+ TCRβ^+ (TCRβ^+ in short), CD45^+ TCRβ^−CD11c^−CD11b^+ (CD11b^+) and CD45^+ TCRβ^−CD11c^+ (CD11c^+) populations was measured by qPCR. The qPCR data were normalized to GAPDH. (FIG. 34C) The mRNA expression of IL-6, IL-1β and TNF-α in sorted Ly6C^hiLy6G^− and Ly6C^loLy6G^hi populations (gated on CD11b^+ cells). The qPCR data were normalized to GAPDH. (FIGS. 34D and 34E) The mRNA expression of IL-6 and IL-1β by BMDMs (FIG. 34D) and BMDCs (FIG. 34E) upon stimulation with 20 ng/ml GM-CSF for 1 h. The qPCR data were normalized to GAPDH. (FIGS. 34F and 34G) BMDMs (FIG. 34F) and BMDCs (FIG. 34G) were stimulated with GM-CSF at indicated concentrations (n=3 per group) for 18 h. The secretion of IL-6 in the culture supernatant was quantified by ELISA. (FIG. 34H) BMDMs were primed with LPS ([…]) in the presence of GM-CSF at indicated concentrations (n=3 per group) for 6 h, followed by stimulation with ATP (5 mM) for 30 min. The secretion of IL-1β in the culture supernatant was quantified by ELISA. (FIG. 34I) Cells were cultured in DMEM medium supplemented with 10% FBS for over 20 days with more than 5 passages to obtain synovial fibroblasts. Synovial fibroblasts were stimulated with GM-CSF (20 ng/ml) for 1 h and harvested for RNA extraction. The mRNA expression of IL-1β was measured by qPCR. The qPCR data were normalized to GAPDH. All data shown represent two independent experiments. *p<0.05, **p<0.01.
To test the regulatory role of GM-CSF in the expression of IL-6 and IL-1β, bone marrow-derived macrophages (BMDMs) and bone marrow-derived dendritic cells (BMDCs) were cultured, and stimulated with GM-CSF. […] To induce mature IL-1β secretion, BMDMs were primed with LPS for 6 h during which different concentrations of GM-CSF was added, followed by ATP stimulation. […] An inducible effect of GM-CSF on TNF-α expression was not observed in BMDMs, BMDCs or synovial fibroblasts (data not shown). Given the functional importance of IL-6 and IL-1β in arthritis development (Choy and Panayi, 2001), TH-cell-secreted GM-CSF may mediate synovial inflammation also via eliciting the expression of IL-6 and IL-1β from myeloid cells and synovial fibroblasts.

## GM-CSF: granulocyte macrophage colony-stimulating factor (ImmunoTools) given intraarticularly or added to cell cultures
Synovial fibroblasts; 20 ng/ml, 1 h
  IL-1β mRNA expression in synovial fibroblasts: increased IL-1β mRNA expression
Synovial fibroblasts; data not shown
  TNF-α expression in synovial fibroblasts: not observed
BMDMs; 20 ng/ml, 1 h
  mRNA expression of IL-6 and IL-1β in BMDMs: quickly upregulated
BMDMs; 18 h, ELISA
  secretion of IL-6 from BMDMs: markedly increased
BMDMs; LPS priming 6 h, then ATP 30 min, ELISA
  secretion of IL-1β from BMDMs: significantly enhanced
BMDMs; data not shown
  TNF-α expression in BMDMs: not observed
